Here are results for one compound from US20080279961A1, “TELOMERE TARGETING AGENTS AS STEM CELLS DIRECTED TREATMENTS” (priority 2007, published 2008).

Each structure is given as a SMILES string. “Also recorded” adds a separate entry of the source.

In one experiment the test system is PC3 cells. Description: MTT proliferation assay (bulk cells). As to conditions: PC3, 5 day; read-out: IC50 growth inhibition of the bulk population by MTT assay. It is filed as cell-based, human. How it is done:
(§1) The growth inhibitory activity of RHPS4 in human bulk tumor cells have been compared, by MTT assay, against RHPS4 activity in tumor cells grown as colonies in the clonogenic assay, also termed the human tumor stem cell assay (HTCA) (FIG. 2A-B). HEK293T human embryonic kidney cells grown in the HTCA, and cord blood cells cultured in methylcellulose were also treated with RHPS4 (FIG. 2C). The MTT assay is a 5 day proliferation test measuring effects on a morphologically heterogeneous, differentiated cell population (bulk cells), whereas the HTCA and methylcellulose assays are longer term (10-15 day) tests in which only a very small fraction of a bulk culture (˜0.1-1%) will grow as colonies. Cells growing anchorage-independently as colonies in a semi-solid matrix are considered to be pluripotent stem cells (Hamburger & Salmon, 1977; Locke et al., 2005; Fiebig et al. 2004). […] Similar observations were made with the breast cancer cell line MCF-7 (shown in FIG. 2B, HTCA IC50=0.04 microM; bulk cell IC50=2 microM).
A general note: Tetrazolium dyes change colour on reduction, which living cells bring about.

In a further experiment the test system is UXF1138L cells. Description: MTT proliferation assay (bulk cells). It counts as cell-based, human. The conditions noted are these: 5 day, read-out: IC50 growth inhibition of the bulk population by MTT assay. As for the experimental part:
as §1

In the next experiment the test system is MCF-7 cells. Description: MTT proliferation assay (bulk cells). It counts as cell-based, human. As to conditions: MCF-7, 5 day; read-out: IC50 bulk cell / whole cell population by MTT assay. As for the experimental part: as §1
Experiment [1] relates to Saos-2, HEK293T, UXF 1138, H460. Description: MTT assay in cell lines with short and long telomeres. It counts as cell-based, human.
The test system of the next experiment is hTERT. Description: hTERT immunofluorescence staining in vitro. It is filed as cell-based, human. The conditions noted are these: UXF1138L cells, 1 microM, 24 hrs. How it is done: During phosphorylated H2AX (gamma-H2AX) and hTERT immunofluorescence staining, approximately 75,000 UXF1138L cells/chamber were seeded onto 8 chamber glass slides (Costar) 24 hrs prior to RHPS4 treatment. After exposure to 1 μM RHPS4 for 1, 6, or 24 hours, cells were washed twice with PBS and air dried. Cells were fixed and permeabilized by immersion into ice-cold methanol/acetone (1:1; 3×1 min). Slides were blocked overnight at 4° C. with 5% BSA in PBS and washed with PBS (3×) before incubation (2 hrs) with anti-gamma-H2AX mouse monoclonal antibody (Upstate, Waltham, Mass.; 1:250 in PBS) or hTERT monoclonal antibody (NCL-L-hTERT Novacastra, Newcastle, UK; 1:40) respectively. Control cells were probed with mouse IgG (Santa Cruz Biotechnolog Inc., Santa Cruz, Calif.). Slides were washed 3× with PBS, before incubation with a goat anti-mouse FITC conjugated secondary antibody (Sigma; 1:100, 3 h). Following further PBS washes (3×), slides were incubated with 1:5000 DAPI (2 mg/ml; Sigma), washed 3× in PBS and mounted with Vectashield mounting media. Images were visualized as described above.

For experiment [2], the system named is telomeres of UXF1138L xenografts. Description: telomere restriction fragment (TRF) length by Southern blot in primary cultures from xenografts. It is filed as in vivo, xenograft. How it is done:
Upon termination of the experiment, which was when tumors reached a volume of 1.5 cm in diameter (day 28), RHPS4 treated tumor tissue and control tumors were excised, minced and digested using a mixture of collagenase (123 U/ml), DNase (375 U/ml), and hyaluronidase (290 U/ml) in RPMI 1640 medium at 37° C. for 3 hrs. All enzymes were purchased from Roche, Indianapolis Ind.). Primary cultures as well as clonogenic growth assays were prepared from the resulting single cell suspensions. Primary cultures were used for analysis of telomere length. In addition, RHPS4 treated tumors (5 mg/kg/d) and control were propagated into new animals for up to three times. The control mouse group was always derived from untreated tumor fragments, but from the same initial passage as were the RHPS4 treated tumors (FIG. 1B).
To measure TRF (Telomere Restriction Fragment)-length, genomic DNA was isolated from 3-7 day primary cultures established from single cell suspensions of control and treated UXF1138L xenograft tissues using the DNeasy Tissue Kit (Qiagen, Hilden, Germany). Southern blotting was performed with the Telo-TAGGG-telomere length kit from Roche (Penzberg, Germany) and analyzed as described before (Burger et al., 2005; Cookson et al., 2005).

For the next experiment, the system named is HEK293T cells. Description: MTT proliferation assay (monolayer). It counts as cell-based, human. As for the experimental part: To assess RHPS4 effects on normal stem cells, the human embryonic kidney cell line HEK293T was exposed to drug in the MTT and HTCA assays, and tested RHPS4 effects on colony forming units of the mononuclear cell fraction of human cord blood in methyl cellulose (FIG. 2C). The cord blood colony assay was performed with and without colony stimulating growth factors, only methylcellulose containing growth factors grew colonies. […] Additionally, in normal cell types as compared to tumor cells, low and pharmacodynamically relevant concentrations of RHPS4 (0.01 to 1 microM) did induce colony formation (FIG. 2C). To assure that the induction of colony growth by RHPS4 in normal stem cells is reproducible, cord blood from three different individuals and HEK293T cells from different passages were used. Data shown in FIG. 2C represent the mean and standard deviation from three independent experiments. […] However, the plating efficiency (actual number of colonies growing per total number of cells seeded) varied among the experiments and therefore the results are shown as % of control growth. E.g. HEK293T control colony growth ranged from a mean number of 54 to 463 colonies per well, but the least percentage (cut-off level) of growth induction by RHPS4 observed in either, the individual HEK293T or the cord blood experiments, was 150%. […]

With `COS(=O)(=O)[O-].Cc1cc2c3c([n+](C)c4ccc(F)cc4c3c1)-c1cc(F)ccc1N2C` [RHPS4, 3,11-difluoro-6,8,13-trimethyl-8H-quino[4,3,2-kl]acridinium methosulfate], the IC50 in the experiment with PC3 cells came to 1800 nM; in the experiment with UXF1138L cells, 400 nM; with MCF-7 cells, 2000 nM. For the same compound, the “difference in inhibitory concentrations 50% between cell lines with short and long telomeres” value in experiment [1] is “two log-fold”. Also, the “nuclear hTERT expression in vitro” value in the experiment with hTERT is “nuclear hTERT expression was attenuated; also recorded: nuclear hTERT signal is attenuated”. In addition, the “TRF [kb]” value in experiment [2] (Passage #1) was 5.1 kb; in experiment [2] (Passage #2), about 4.7 kb; in experiment [2] (Passage #3) it was about 3.4 kb; in experiment [2] (Passage #4), 4.2 kb. Also, in experiment [2] (passage ~28 days), the “rate of TRF-length shortening” value is given as “approximately 1 kb per passage”. Also, the “bulk cell growth, % of control” value in the experiment with HEK293T cells (1 mircoM RHPS4, HEK293T monolayer) is 60%. Also, the “induction of growth in MTT assay” value with HEK293T cells (eight dose levels 0.001-50 mircoM) is “no induction of growth”.
